PMC5796035 (2017)
Each block holds one compound with its values, some of them ahead of it.

How the values were obtained:
[1] = tested on: R12.51 (DNA, aptamer) TGTACCGTCTGAGCGATTCGTACAGTTTCTGGAGGACTGGGCGGGGTGACGGTTATGAGCCAGTCAGTGTTAAGGAGTGC; experiment: competitive elution from immobilised fipronil, fluorescence; conditions: 100 mM NaCl, 2 mM MgCl2, 20 mM Tris-HCl
[2] = tested on: R12.51 (DNA, aptamer) TGTACCGTCTGAGCGATTCGTACAGTTTCTGGAGGACTGGGCGGGGTGACGGTTATGAGCCAGTCAGTGTTAAGGAGTGC; experiment: plate-based fluorescence saturation binding; conditions: 100 mM NaCl, 2 mM MgCl2; immobilised compound (maleic anhydride plate); 20 mM Tris-HCl; mean of four assays (55, 35, 38, 64 nM)

binding ([1]; 1 µM, fipronil/compound ratio 1.52 (5.05 at 200 nM in river water/buffer)): weak
SMILES: CCC(=O)Nc1ccc(Cl)c(Cl)c1

binding ([1]; 1 µM, fipronil/compound ratio 1.23 (4.80 at 200 nM in river water/buffer)): weak
SMILES: CCNc1nc(Cl)nc(NC(C)C)n1

binding ([1]; 1 µM, displaces MRE from immobilised fipronil, fipronil/compound ratio 1.10): yes
SMILES: CCS(=O)c1c(C#N)nn(-c2c(Cl)cc(C(F)(F)F)cc2Cl)c1N (centres unmarked)

binding ([1]; 1 µM, displaces MRE from immobilised fipronil, fipronil/compound ratio 1.16): yes
SMILES: N#Cc1nn(-c2c(Cl)cc(C(F)(F)F)cc2Cl)c(N)c1C(F)(F)F

binding ([1]; 1 µM, displaces MRE from immobilised fipronil, fipronil/compound ratio 1.07): yes
SMILES: N#Cc1nn(-c2c(Cl)cc(C(F)(F)F)cc2Cl)c(N)c1S(=O)(=O)C(F)(F)F

binding ([1]; free compound 1 µM, normalized fluorescence 2.413 (no target 0.247)): yes
Kd [2]: 0.048 ± 0.008 µM
SMILES: N#Cc1nn(-c2c(Cl)cc(C(F)(F)F)cc2Cl)c(N)c1S(=O)C(F)(F)F (centres unmarked)

binding ([1]; 1 µM, displaces MRE from immobilised fipronil, fipronil/compound ratio 0.89): yes
SMILES: N#Cc1nn(-c2c(Cl)cc(C(F)(F)F)cc2Cl)c(N)c1SC(F)(F)F
